Data as given in ChEMBL document CHEMBL3351663, “Discovery of acylurea isosteres of 2-acylaminothiadiazole in the azaxanthene series of glucocorticoid receptor agonists” (Bioorg Med Chem Lett, 2014).

Columns and labels:
Cytochrome P450 2C8 = target: T1, Cytochrome P450 2C8 (Homo sapiens, UniProt P10632); assay: Inhibition of CYP2C8 (unknown origin); assay type: ADME
T1 sequence (P10632 whole entry): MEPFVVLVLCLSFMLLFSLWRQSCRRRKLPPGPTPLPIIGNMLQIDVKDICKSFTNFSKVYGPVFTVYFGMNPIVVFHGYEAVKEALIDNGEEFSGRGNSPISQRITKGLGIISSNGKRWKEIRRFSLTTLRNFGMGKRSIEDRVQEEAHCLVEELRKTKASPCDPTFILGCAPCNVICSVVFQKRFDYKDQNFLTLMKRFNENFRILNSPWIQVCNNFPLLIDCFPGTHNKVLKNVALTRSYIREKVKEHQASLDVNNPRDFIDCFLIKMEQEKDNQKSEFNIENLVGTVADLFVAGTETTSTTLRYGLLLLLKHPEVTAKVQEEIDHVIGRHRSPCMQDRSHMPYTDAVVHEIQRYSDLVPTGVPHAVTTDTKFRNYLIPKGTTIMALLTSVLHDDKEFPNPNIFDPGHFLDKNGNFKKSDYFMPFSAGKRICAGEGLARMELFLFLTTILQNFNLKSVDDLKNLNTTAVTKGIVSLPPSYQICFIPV

[1] = target: T2, Mineralocorticoid receptor (Homo sapiens, UniProt P08235); assay: Agonist activity at mineralocorticoid receptor in human A549 cells; assay type: cell-based
T2 sequence (P08235 whole entry): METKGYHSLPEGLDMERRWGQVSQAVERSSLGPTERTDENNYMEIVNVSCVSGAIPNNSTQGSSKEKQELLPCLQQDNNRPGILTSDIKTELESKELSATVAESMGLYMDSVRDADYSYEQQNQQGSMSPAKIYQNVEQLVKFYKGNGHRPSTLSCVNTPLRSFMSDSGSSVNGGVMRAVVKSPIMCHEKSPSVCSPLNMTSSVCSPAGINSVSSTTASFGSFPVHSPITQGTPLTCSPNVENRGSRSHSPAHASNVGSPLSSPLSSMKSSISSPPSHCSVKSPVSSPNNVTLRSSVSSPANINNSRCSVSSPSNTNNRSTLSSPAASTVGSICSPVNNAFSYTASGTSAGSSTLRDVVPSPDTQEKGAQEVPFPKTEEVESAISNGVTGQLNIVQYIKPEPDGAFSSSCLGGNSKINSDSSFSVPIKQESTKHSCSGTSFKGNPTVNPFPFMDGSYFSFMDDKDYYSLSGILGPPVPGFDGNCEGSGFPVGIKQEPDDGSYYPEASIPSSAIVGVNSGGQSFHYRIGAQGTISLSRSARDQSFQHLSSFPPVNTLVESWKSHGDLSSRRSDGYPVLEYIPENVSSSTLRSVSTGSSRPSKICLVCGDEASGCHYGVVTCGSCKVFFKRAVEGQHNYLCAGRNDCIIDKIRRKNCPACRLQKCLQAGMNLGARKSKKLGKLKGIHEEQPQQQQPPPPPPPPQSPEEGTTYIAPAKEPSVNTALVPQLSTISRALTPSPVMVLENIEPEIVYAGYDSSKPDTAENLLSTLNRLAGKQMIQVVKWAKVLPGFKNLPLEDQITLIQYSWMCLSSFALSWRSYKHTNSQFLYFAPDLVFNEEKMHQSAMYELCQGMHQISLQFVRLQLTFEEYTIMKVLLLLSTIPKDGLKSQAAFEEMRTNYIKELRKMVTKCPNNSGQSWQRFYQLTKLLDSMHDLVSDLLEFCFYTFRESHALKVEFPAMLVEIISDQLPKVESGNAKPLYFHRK

[2] = Half life in human liver microsomes
Cytochrome P450 3A4 = Cytochrome P450 3A4 (Homo sapiens, UniProt P08684); assay: Inhibition of CYP3A4 (unknown origin); assay type: ADME
Cytochrome P450 2C9 = Cytochrome P450 2C9 (Homo sapiens, UniProt P11712); assay: Inhibition of CYP2C9 (unknown origin); assay type: ADME
Glucocorticoid receptor = target: T3, Glucocorticoid receptor (Homo sapiens, UniProt P04150); assay: Agonist activity at glucocorticoid receptor in human HeLa cells assessed as NP-1 transactivation by luciferase reporter gene assay; assay type: cell-based
T3 sequence (P04150 whole entry): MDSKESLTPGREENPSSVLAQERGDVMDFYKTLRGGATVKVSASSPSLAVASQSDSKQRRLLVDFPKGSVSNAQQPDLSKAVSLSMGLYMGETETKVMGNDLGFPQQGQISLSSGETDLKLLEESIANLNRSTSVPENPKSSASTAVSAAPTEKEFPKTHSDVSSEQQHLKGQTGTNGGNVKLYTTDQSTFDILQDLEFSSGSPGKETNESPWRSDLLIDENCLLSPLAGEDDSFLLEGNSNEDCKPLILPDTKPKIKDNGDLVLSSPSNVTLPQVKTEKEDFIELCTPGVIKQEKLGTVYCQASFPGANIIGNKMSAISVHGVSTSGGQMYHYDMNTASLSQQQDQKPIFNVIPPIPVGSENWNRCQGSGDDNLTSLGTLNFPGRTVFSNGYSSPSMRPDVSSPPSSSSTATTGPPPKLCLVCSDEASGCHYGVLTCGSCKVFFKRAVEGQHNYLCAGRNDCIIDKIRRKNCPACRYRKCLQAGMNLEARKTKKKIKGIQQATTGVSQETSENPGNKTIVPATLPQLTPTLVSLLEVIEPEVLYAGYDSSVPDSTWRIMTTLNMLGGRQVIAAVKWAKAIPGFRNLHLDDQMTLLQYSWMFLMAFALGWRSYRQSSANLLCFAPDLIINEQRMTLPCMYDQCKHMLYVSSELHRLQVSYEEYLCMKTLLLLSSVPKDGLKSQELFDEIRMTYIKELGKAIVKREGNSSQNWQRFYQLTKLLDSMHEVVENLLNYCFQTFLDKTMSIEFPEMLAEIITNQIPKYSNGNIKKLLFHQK

Estrogen receptor = target: T4, Estrogen receptor (Homo sapiens, UniProt P03372); assay: Binding affinity to estrogen receptor-alpha (unknown origin)
T4 sequence (P03372 whole entry): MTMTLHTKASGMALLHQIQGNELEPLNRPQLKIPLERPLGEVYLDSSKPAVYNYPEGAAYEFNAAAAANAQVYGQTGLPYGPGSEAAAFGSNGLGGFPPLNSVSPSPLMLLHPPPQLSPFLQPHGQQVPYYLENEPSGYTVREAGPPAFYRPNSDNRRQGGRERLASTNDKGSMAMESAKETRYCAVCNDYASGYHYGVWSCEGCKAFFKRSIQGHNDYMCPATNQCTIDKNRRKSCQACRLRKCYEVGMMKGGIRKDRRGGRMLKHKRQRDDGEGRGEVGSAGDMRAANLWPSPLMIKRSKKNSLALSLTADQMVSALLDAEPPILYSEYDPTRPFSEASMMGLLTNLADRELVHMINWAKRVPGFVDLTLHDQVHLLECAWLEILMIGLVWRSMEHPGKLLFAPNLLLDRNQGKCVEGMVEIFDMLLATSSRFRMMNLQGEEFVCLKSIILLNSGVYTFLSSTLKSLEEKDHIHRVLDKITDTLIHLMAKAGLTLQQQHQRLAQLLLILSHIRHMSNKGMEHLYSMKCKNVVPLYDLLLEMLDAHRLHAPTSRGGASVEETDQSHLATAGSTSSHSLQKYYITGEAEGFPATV

Sequence of Cytochrome P450 2C9 (P11712 whole entry): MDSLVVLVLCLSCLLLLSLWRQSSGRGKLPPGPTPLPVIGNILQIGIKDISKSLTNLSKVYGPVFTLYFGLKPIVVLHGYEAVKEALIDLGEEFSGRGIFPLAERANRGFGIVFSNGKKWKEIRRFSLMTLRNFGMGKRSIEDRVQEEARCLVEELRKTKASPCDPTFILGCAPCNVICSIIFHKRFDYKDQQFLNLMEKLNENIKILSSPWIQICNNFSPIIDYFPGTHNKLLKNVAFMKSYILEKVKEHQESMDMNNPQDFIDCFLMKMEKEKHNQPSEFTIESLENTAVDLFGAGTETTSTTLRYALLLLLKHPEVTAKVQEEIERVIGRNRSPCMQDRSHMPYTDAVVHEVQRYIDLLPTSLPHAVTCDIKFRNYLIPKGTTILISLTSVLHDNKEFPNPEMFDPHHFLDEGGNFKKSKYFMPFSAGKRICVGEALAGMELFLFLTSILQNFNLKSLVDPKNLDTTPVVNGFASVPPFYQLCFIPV
Sequence of Cytochrome P450 3A4 (P08684 whole entry): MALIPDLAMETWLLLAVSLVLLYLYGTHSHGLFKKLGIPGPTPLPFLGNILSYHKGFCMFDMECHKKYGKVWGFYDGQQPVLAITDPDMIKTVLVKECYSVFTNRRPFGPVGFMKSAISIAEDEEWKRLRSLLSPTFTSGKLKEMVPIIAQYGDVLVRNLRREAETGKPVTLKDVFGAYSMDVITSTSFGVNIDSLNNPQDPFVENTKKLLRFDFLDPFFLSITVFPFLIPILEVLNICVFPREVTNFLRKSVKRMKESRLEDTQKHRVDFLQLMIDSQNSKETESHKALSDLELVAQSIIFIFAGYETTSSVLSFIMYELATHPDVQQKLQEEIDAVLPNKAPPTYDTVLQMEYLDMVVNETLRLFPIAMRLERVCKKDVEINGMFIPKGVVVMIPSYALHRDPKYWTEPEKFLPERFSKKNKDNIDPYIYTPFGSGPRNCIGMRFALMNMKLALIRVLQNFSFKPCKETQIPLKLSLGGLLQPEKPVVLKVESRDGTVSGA

| IC50 (Cytochrome P450 2C8) | EC50 [1] | half-life ([2]; liver microsomes) | IC50 (Cytochrome P450 3A4) | IC50 (Cytochrome P450 2C9) | EC50 (Glucocorticoid receptor) | Ki (Estrogen receptor) | half-life ([2]; microsomes) | Compound |
| --- | --- | --- | --- | --- | --- | --- | --- | --- |
| 3.7 µM | > 5 µM | 9.1 min | 0.3 µM | 1 µM | 0.0108 µM | > 75 µM | – | CC(C)(C(=O)Nc1nncs1)[C@@H]1c2ccc(-c3ccc(C(=O)N4CCOCC4)cc3)nc2Oc2c(F)cccc21 |
| 8.9 µM | > 5 µM | – | > 40 µM | 14 µM | 0.0055 µM | > 75 µM | 41 min | CC(C)(C(=O)NC(N)=O)[C@@H]1c2ccc(-c3ccc(C(=O)N4CCOCC4)cc3)nc2Oc2c(F)cccc21 |
